Where no end group is shown, it is not given here.

In the first data set the test system is AI4 CTL. Description: 51Cr-release cytotoxicity assay, AI4 CTL against peptide-pulsed RMA-S target cells. Format: cell-based, mouse. The conditions noted are these: RMA-S target cells, E:T ratio of 40, lower peptide concentrations (FIG. 6B); read-out: half-maximal activity, AI4 cytotoxic response. As for the experimental part: Cytotoxicity assays for screening of HPLC fractions and peptide libraries. AI4 CTL were generated by culturing splenocytes from NOD.AI4αβTg mice with IFN-γ-treated NIT-1 cells and 12.5 U/ml IL-2 as described (DiLorenzo et al., 2002). NY8.3 CTL were generated by culturing splenocytes from 8.3-NOD mice with mitomycin C-treated NOD splenocytes pulsed with 10 nM NRP-A7 peptide as described (DiLorenzo et al., 2002). CTL were used in 16 h ^51Cr-release cytotoxicity assays to test for recognition of peptide-pulsed target cells at an E:T ratio of 40:1 as described (DiLorenzo et al., 2002). TAP-deficient cell lines RMA-S, RMA-S/K^d, T2, and T2-K^d were used as targets. Synthetic peptides or peptide library mixes were used at concentrations indicated in the figures, and 1.6×10^9 NIT-1 cell equivalents of peptide were used for HPLC fraction screening assays.
Cytotoxicity Assay. AI4 CTL were generated by culturing splenocytes from NOD.AI4αβ Tg mice with IFN-γ-treated NIT-1β cells (Hamaguchi et al., 1991) and IL-2 as described (DiLorenzo et al., 2002). CTL were used in 16 h ^51Cr-release cytotoxicity assays to test for recognition of peptide-pulsed target cells at an effector to target ratio of 40:1 as described (DiLorenzo et al., 2002). TAP-deficient RMA-S cells (Kerre et al., 1986) were used as targets.
On to YAIENYLEL [MimA2, YAIENYLEL], for which the EC50 amounted to 0.01 nM.

Still in this data set, the particulars now being: RMA-S targets, peptide 0.1 nM to 1 μM (FIG. 11A).
Regarding “DMHENYMEM [DM9, natural peptide of X-linked lymphocyte regulated complex]”, the “AI4 CTL response to natural peptides with AI4-preferred motif” value (“AI4 CTL response to natural peptides” below) was “nonreacting”.

With “EVVESYMYL [EL9, natural peptide, similar to 1,2-α-mannosidase IC]”, the “AI4 CTL response to natural peptides” value was “nonreacting”.

“FQDENYLYL (listed as Mus musculus) [FNL9, natural peptide of DMK and MRCKβ]”: the “AI4 CTL response to natural peptides” value is reported as “mirroring that obtained with the Mim peptide”.

On to “FTDESYLEL [FSL9, natural peptide of polymyositis/scleroderma autoantigen 2]”, for which the “AI4 CTL response to natural peptides” value is listed as “nonreacting”.

For the sequence “HEAESYML [HL9, natural peptide of calcitonin receptor precursor]”, the “AI4 CTL response to natural peptides” value is given as “nonreacting”.

Take “QYLENYLWM (listed as Mus musculus) [QM9, natural peptide of aquarius]”: the “AI4 CTL response to natural peptides” value is given as “more weakly”.

As to “RLFENYIEL (listed as Mus musculus) [RIL9, natural peptide of exocyst complex component Sec5]”, the “AI4 CTL response to natural peptides” value was “more weakly”.

On to “RTSENYLEL [RLL9, natural peptide of MKIAA1569 protein]”, for which the “AI4 CTL response to natural peptides” value is listed as “nonreacting”.

As to “TNKENYTEL [TL9, natural peptide of stromal cell derived factor receptor 1]”, the “AI4 CTL response to natural peptides” value was “nonreacting”.

Regarding “VMLENYTHL (listed as Mus musculus) [VML9, natural peptide, similar to KRAB zinc finger protein]”, the “AI4 CTL response to natural peptides” value is recorded as “more weakly”.

For “VTLENYTHL [VTL9, natural peptide of hypothetical protein]”, the “AI4 CTL response to natural peptides” value is on record as “nonreacting”.

The same data set, now with this note: mimotope and alanine-substituted peptides, varying concentrations, E:T ratio of 40.
For the sequence YAIENYLEL [MimA2, YAIENYLEL], the “AI4 cytotoxic response towards peptide-pulsed RMA-S target cells” value is on record as “strongest AI4 CTL response of all of the peptides”.

Consider YFIANYLEL [A4], for which the “AI4 cytotoxic response towards peptide-pulsed RMA-S target cells” value is given as “significantly lower responses”.

With YFIENALEL [A6], the “AI4 cytotoxic response towards peptide-pulsed RMA-S target cells” value is listed as “significantly lower responses”.

Take YFIENYAEL [A7]: the “AI4 cytotoxic response towards peptide-pulsed RMA-S target cells” value is “decreased”.

Regarding YFIENYLAL [A8], the “AI4 cytotoxic response towards peptide-pulsed RMA-S target cells” value is reported as “decreased”.

Regarding YFIENYLEL [Mim, YFIENYLEL], the “AI4 cytotoxic response towards peptide-pulsed RMA-S target cells” value is “best response”.

The next data set addresses T1, H-2K^d (Mus musculus, UniProt P01902).
T1 sequence (P01902 22-368): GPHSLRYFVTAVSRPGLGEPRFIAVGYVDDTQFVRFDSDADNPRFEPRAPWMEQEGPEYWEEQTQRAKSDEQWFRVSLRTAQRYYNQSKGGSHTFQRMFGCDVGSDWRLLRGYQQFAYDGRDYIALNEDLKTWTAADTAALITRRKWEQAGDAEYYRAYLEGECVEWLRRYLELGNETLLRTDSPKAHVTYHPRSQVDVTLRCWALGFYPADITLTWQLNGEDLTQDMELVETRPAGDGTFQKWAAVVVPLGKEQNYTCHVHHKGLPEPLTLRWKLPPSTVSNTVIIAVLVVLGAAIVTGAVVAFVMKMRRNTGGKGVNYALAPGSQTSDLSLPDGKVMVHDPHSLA
T1 sequence (P01887 21-119 partner): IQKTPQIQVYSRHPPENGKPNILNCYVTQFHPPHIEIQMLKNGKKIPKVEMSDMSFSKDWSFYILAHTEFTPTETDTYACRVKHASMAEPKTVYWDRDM
Test: not given
The conditions noted are these: cited from earlier work.
Consider “LYLVCGERI (listed as Mouse sp.) [INS-I9, G9I variant of murine insulin B15-23]”, for which the “binding to H-2K^d relative to insulin B15-23” value was “more stable binding”.

Consider “LYLVCGERL (listed as Mus musculus) [INS-L9, G9L variant of murine insulin B15-23]”, for which the “binding to H-2K^d relative to insulin B15-23” value is given as “more stable binding”.

The test system of another data set is T cells cultured from NOD islets. The experiment in a line: IFN-γ ELISPOT of T cells cultured from NOD islets with peptide-pulsed APC. Format: cell-based, mouse. The conditions noted are these: 1 μM peptide, T cells from pooled islets of 11-week-old NOD mice, 40 h. On the procedure: ELISPOT assay. ELISPOT plates (MAHA S45 10; Millipore, Billerica, Mass.) were precoated with anti-murine IFN-γ Ab (R4-6A2; BD Biosciences Pharmingen, San Diego, Calif.) and blocked with 1% BSA (Fraction V, Sigma-Aldrich, St. Louis, Mo.) in PBS. APC (Mitomycin C-treated NOD splenocytes) were added at 2×10^4 cells/well and pulsed for 1 h with 1 μM of each peptide (MimA2, NRP-V7, INS-19, INS BC, GAD65206, GAD65546). Cultured islet T cells were added at 2×10^4 cells/well and plates were incubated at 37° C. for 40 h. IFN-γ secretion was detected with a second, biotinylated anti-murine IFN-γ Ab (XMG1.2; BD Biosciences Pharmingen, San Diego, Calif.). Spots were developed using streptavidin-alkaline phosphatase (Zymed Laboratories, Inc., South San Francisco, Calif.) and 5-bromo-4-chloro-3-indolyl-phosphate/nitroblue tetrazolium chloride substrate (Sigma-Aldrich, St. Louis, Mo.).
IFN-γ ELISPOT. ELISPOT plates (MAHA S45 10; Millipore) were coated with anti-murine IFN-γ Ab (R4-6A2; BD Biosciences Pharmingen) and blocked with 1% BSA (Sigma-Aldrich) in PBS. APC (Mitomycin C-treated NOD splenocytes) were added at 2×10^4 cells/well and pulsed with 1 μM peptide. Cultured islet T cells were added at 2×10^4 cells/well and plates were incubated at 37° C. for 40 h. Secreted IFN-γ was detected with a second, biotinylated anti-murine IFN-γ Ab (XMG1.2; BD Biosciences Pharmingen). Spots were developed using streptavidin-alkaline phosphatase (Zymed Laboratories) and 5-bromo-4-chloro-3-indolyl-phosphate/nitroblue tetrazolium chloride substrate (Sigma-Aldrich). For all incubation steps, plate bottoms were covered with aluminum foil to distribute heat uniformly across the plate as described (Kalyuzhny and Stark, 2001).
“FQDENYLYL (listed as Mus musculus) [FNL9, natural peptide of DMK and MRCKβ]”: the “IFN-γ spots in response to peptide” value was “recognized by a detectable population of T cells”.

In the case of “FYTPMSRREV (listed as Mus musculus) [INS BC, murine insulin 2 B25-C34]”, the “IFN-γ spots in response to peptide” value is given as “No spots were detected”.

In the case of “KYNKANVFL (peptide NRP-V7) [mimotope peptide recognized by 8.3-like T cells]”, the “IFN-γ spots in response to peptide” value is on record as “detectable”.

Turning to “LYLVCGERL (listed as Mus musculus) [INS-L9, G9L variant of murine insulin B15-23]”, the “IFN-γ spots in response to peptide” value is reported as “detectable”.

On to “SYQPLGDKV (listed as Mus musculus) [GAD65546, murine GAD65 546-554 peptide]”, for which the “IFN-γ spots in response to peptide” value was “unable to detect responses”.

Turning to “TYEIAPVFV (listed as Mus musculus) [GAD65206, murine glutamic acid decarboxylase 65 206-214]”, the “IFN-γ spots in response to peptide” value is “unable to detect responses”.
